Our source for the viability, T/C and IC50 values is PubChem BioAssay AID2060912 (Molecular Pharmacology Branch, DTP, NCI, 2025).

The subject of the test is HUVEC/MSC spheroids viability. Description: Human HUVEC/MSC cell line growth inhibition [KRAS2].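 On viability, T/C: percent of DMSO vehicle control luminescence so 100% = untreated viability.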 The conditions noted are these: for viability, T/C: stronger effect = lower value. In outline:
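Growth/viability of tumour-free HUVEC–hMSC spheroids was measured after exposure to targeted small molecules and KRAS inhibitors, singly or in combination. Agents were diluted in half-log steps from Cmax-based top concentrations, capped at 10 microM without known Cmax.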

The mark [1] stands for this setting: curve of first compound, second compound 0.0316 µM.
Where [2] appears, read: curve of first compound, second compound 0.1 µM.
Setting [3] is: curve of first compound, second compound 0.316 µM.
Where [4] appears, read: curve of first compound, second compound 1 µM.
Where [5] appears, read: curve of first compound, second compound 3.16 µM.
The mark [6] stands for this setting: curve of first compound, second compound 10 µM.
The mark [7] stands for this setting: second compound 0.0316 µM, first compound 0.0316 µM.
[8] abbreviates: second compound 0.0316 µM, first compound 0.1 µM.
[9] abbreviates: second compound 0.1 µM, first compound 0.0316 µM.
The mark [10] stands for this setting: second compound 0.1 µM, first compound 0.1 µM.
Where [11] appears, read: second compound 0.316 µM, first compound 0.0316 µM.
The mark [12] stands for this setting: second compound 0.316 µM, first compound 0.1 µM.
The mark [13] stands for this setting: second compound 1 µM, first compound 0.0316 µM.
Setting [14] is: second compound 1 µM, first compound 0.1 µM.
The mark [15] stands for this setting: second compound 3.16 µM, first compound 0.0316 µM.
Setting [16] is: second compound 3.16 µM, first compound 0.1 µM.
Setting [17] is: second compound 10 µM, first compound 0.0316 µM.
Where [18] appears, read: second compound 10 µM, first compound 0.1 µM.

Consider `CC1(C)CCC(CN2CCN(c3ccc(C(=O)NS(=O)(=O)c4ccc(NCC5CCOCC5)c([N+](=O)[O-])c4)c(Oc4cnc5[nH]ccc5c4)c3)CC2)=C(c2ccc(Cl)cc2)C1`, for which the viability, T/C (compound 0.0316 µM) is 90.6% [middle of 5 runs]; the viability, T/C (compound 0.1 µM) was 95.1% [middle of 5 runs]; the viability, T/C (compound 0.316 µM) was 83% [middle of 5 runs]; the viability, T/C (compound 1 µM) was 90.2% [middle of 5 runs]; the viability, T/C (compound 3.16 µM) was 69% [middle of 5 runs]; the viability, T/C (compound 10 µM) is 4.4% [middle of 5 runs]. Moreover, the IC50 (curve of compound) is 4.56 µM [middle of 4 runs].
On to `CCNC(=O)CC1N=C(c2ccc(Cl)cc2)c2cc(OC)ccc2-n2c(C)nnc21` (stereo not given) + C=CC(=O)N1CCN(c2nc(=O)n(-c3c(C)ccnc3C(C)C)c3nc(-c4c(O)cccc4F)c(F)cc23)C(C)C1, for which the concentration for half-maximal inhibition (IC50) is, setting by setting: under setting [1], greater than 10 µM; under setting [2], greater than 10 µM; under setting [3], greater than 10 µM; under setting [4], greater than 10 µM; under setting [5], greater than 10 µM; under setting [6], greater than 10 µM. The viability, T/C reads like this: under setting [7], 94.8%; under setting [8], 96.7%; (second compound 0.0316 µM, first compound 0.316 µM) 129%; (second compound 0.0316 µM, first compound 1 µM) 140%; (second compound 0.0316 µM, first compound 3.16 µM) 120%; (second compound 0.0316 µM, first compound 10 µM) 121%. The viability, T/C by setting is: under setting [9], 104%; under setting [10], 86.3%; (second compound 0.1 µM, first compound 0.316 µM) 110%; (second compound 0.1 µM, first compound 1 µM) 138%; (second compound 0.1 µM, first compound 3.16 µM) 162%; (second compound 0.1 µM, first compound 10 µM) 151%. Besides, the viability, T/C under setting [11] is 111%; the viability, T/C under setting [12] is 109%; the viability, T/C (second compound 0.316 µM, first compound 0.316 µM) is 116%; the viability, T/C (second compound 0.316 µM, first compound 1 µM) is 143%; the viability, T/C (second compound 0.316 µM, first compound 3.16 µM) is 131%; the viability, T/C (second compound 0.316 µM, first compound 10 µM) was 187%. Moreover, the viability, T/C was 114% under setting [13]; 105% under setting [14]; 140% (second compound 1 µM, first compound 0.316 µM); 163% (second compound 1 µM, first compound 1 µM); 179% (second compound 1 µM, first compound 3.16 µM); 174% (second compound 1 µM, first compound 10 µM). For the same molecule, the viability, T/C reads like this: under setting [15], 116%; under setting [16], 146%; (second compound 3.16 µM, first compound 0.316 µM) 150%; (second compound 3.16 µM, first compound 1 µM) 208%; (second compound 3.16 µM, first compound 3.16 µM) 206%; (second compound 3.16 µM, first compound 10 µM) 207%. The viability, T/C under setting [17] was 125%; the viability, T/C under setting [18] is 127%; the viability, T/C (second compound 10 µM, first compound 0.316 µM) was 176%; the viability, T/C (second compound 10 µM, first compound 1 µM) is 189%; the viability, T/C (second compound 10 µM, first compound 3.16 µM) was 179%; the viability, T/C (second compound 10 µM, first compound 10 µM) was 197%.
Consider `Cn1ncnc1[C@H]1c2n[nH]c(=O)c3cc(F)cc(c23)N[C@@H]1c1ccc(F)cc1` + CNCc1ccccc1-c1csc(C(C)Nc2nc(C)nc3cc(OC)c(OC)cc23)c1, for which the IC50 under setting [1] is greater than 0.1 µM; the IC50 under setting [2] was greater than 0.1 µM; the IC50 under setting [3] was greater than 0.1 µM; the IC50 under setting [4] was greater than 0.1 µM; the IC50 under setting [5] is greater than 0.1 µM; the IC50 under setting [6] is less than 0.000316 µM. Besides, the viability, T/C reads like this: (second compound 0.0316 µM, first compound 0.000316 µM) 97.8%; (second compound 0.0316 µM, first compound 0.001 µM) 85.9%; (second compound 0.0316 µM, first compound 0.00316 µM) 81.2%; (second compound 0.0316 µM, first compound 0.01 µM) 73.2%; under setting [7], 76.8%; under setting [8], 78.4%. In addition, the viability, T/C reads like this: (second compound 0.1 µM, first compound 0.000316 µM) 93.3%; (second compound 0.1 µM, first compound 0.001 µM) 90.2%; (second compound 0.1 µM, first compound 0.00316 µM) 90.2%; (second compound 0.1 µM, first compound 0.01 µM) 70.6%; under setting [9], 81.8%; under setting [10], 79.7%. Also, the viability, T/C (second compound 0.316 µM, first compound 0.000316 µM) is 65.4%; the viability, T/C (second compound 0.316 µM, first compound 0.001 µM) is 90.5%; the viability, T/C (second compound 0.316 µM, first compound 0.00316 µM) is 79.9%; the viability, T/C (second compound 0.316 µM, first compound 0.01 µM) was 76.5%; the viability, T/C under setting [11] was 76.2%; the viability, T/C under setting [12] is 69.2%. Further, the viability, T/C runs as follows: (second compound 1 µM, first compound 0.000316 µM) 67.3%; (second compound 1 µM, first compound 0.001 µM) 76.9%; (second compound 1 µM, first compound 0.00316 µM) 67%; (second compound 1 µM, first compound 0.01 µM) 75.3%; under setting [13], 75.9%; under setting [14], 72%. The viability, T/C is 89% (second compound 3.16 µM, first compound 0.000316 µM); 86.8% (second compound 3.16 µM, first compound 0.001 µM); 94.7% (second compound 3.16 µM, first compound 0.00316 µM); 80.7% (second compound 3.16 µM, first compound 0.01 µM); 77.8% under setting [15]; 75% under setting [16]. The viability, T/C reads like this: (second compound 10 µM, first compound 0.000316 µM) 0.29%; (second compound 10 µM, first compound 0.001 µM) 0.28%; (second compound 10 µM, first compound 0.00316 µM) 0.32%; (second compound 10 µM, first compound 0.01 µM) 0.29%; under setting [17], 0.31%; under setting [18], 0.28%.
As for `CCN1CCN(Cc2ccc(Nc3ncc(F)c(-c4cc(F)c5nc(C)n(C(C)C)c5c4)n3)nc2)CC1`, the viability, T/C is, setting by setting: (compound 0.01 µM) 86.6% [middle of 5 runs]; (compound 0.0316 µM) 87.7% [middle of 5 runs]; (compound 0.1 µM) 83.9% [middle of 5 runs]; (compound 0.316 µM) 99.4% [middle of 5 runs]. For the same molecule, the half-maximal inhibitory concentration (IC50) (curve of compound) is greater than 1 µM.
In the case of `COc1cc2nc(C)nc(NC(C)c3cc(N)cc(C(F)(F)F)c3)c2cc1OC1CCOC1` (stereo not given), the viability, T/C (compound 0.0316 µM) is 99.5% [middle of 9 runs]; the viability, T/C (compound 0.316 µM) was 97.3% [middle of 9 runs]; the viability, T/C (compound 10 µM) is 66.7% [middle of 9 runs]. Also, the IC50 (compound alone, run of 05/05/2024) is greater than 10 µM.

For orientation: viability, T/C means the ratio of treated to control. For orientation: IC50 means the concentration at which inhibition is half-maximal.
